Our source for the inhibition and Activity values is ChEMBL document CHEMBL1124351, “Syntheses and bioevaluation of substituted dihydropyridines for pregnancy-interceptive activity in hamsters” (1989).

Usually inhibition stands for the share of the control response that was lost under treatment.

The target of assay [1] is T1, Progesterone receptor (Oryctolagus cuniculus) (UniProt P06186).
T1 sequence (whole entry): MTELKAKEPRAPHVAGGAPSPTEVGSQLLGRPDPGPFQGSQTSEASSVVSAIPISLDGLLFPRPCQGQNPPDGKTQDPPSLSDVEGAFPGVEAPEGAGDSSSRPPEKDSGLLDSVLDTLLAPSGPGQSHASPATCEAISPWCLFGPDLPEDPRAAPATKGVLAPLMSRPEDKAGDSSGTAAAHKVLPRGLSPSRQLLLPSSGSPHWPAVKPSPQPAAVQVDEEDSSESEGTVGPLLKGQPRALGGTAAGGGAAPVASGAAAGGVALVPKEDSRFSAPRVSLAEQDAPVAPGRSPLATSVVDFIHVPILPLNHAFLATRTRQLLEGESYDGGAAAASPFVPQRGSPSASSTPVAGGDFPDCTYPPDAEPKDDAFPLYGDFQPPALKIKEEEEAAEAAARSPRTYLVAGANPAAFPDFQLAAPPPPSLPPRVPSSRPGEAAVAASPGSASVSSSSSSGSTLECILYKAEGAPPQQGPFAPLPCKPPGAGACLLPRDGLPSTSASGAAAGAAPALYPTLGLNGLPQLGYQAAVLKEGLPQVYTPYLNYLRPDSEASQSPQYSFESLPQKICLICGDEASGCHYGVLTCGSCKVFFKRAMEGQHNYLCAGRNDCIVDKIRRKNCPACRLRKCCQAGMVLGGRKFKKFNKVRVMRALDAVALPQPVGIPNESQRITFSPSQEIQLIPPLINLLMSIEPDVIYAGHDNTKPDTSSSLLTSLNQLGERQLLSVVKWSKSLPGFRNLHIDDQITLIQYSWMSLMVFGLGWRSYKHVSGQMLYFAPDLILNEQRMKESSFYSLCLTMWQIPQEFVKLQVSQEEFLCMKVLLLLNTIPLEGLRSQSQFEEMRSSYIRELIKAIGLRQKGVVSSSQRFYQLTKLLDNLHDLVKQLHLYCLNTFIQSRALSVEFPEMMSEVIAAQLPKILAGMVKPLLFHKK
The assay can be described thus: Percent inhibition of [3H]- progesterone binding to rabbit uterine progesterone receptor, at 10e-8 M compound concentration. The following applies: at 0.01 µM.

In assay [2] the target is T1, Progesterone receptor (Oryctolagus cuniculus). Briefly: Percent inhibition of [3H]- progesterone binding to rabbit uterine progesterone receptor, at 10e-5 M compound concentration. The following applies: at 10 µM.
For assay [3] the target is unchanged. The assay can be described thus: Percent inhibition of [3H]- progesterone binding to rabbit uterine progesterone receptor, at 10e-9 M compound concentration. The following applies: at 0.001 µM.
Assay [4] deals with Progesterone receptor (Mesocricetus auratus). The assay can be described thus: Percent inhibition of [3H]- progesterone binding to Syrian golden hamster uterine cytosol progesterone receptor, at 10e-8 M compound concentration. The following applies: at 0.01 µM.
Assay [5] relates to Cricetinae gen. sp. Briefly: Activity against pregnancy-interceptive activity in Syrian golden hamsters, when administered, at a dose of 6.96 mmol/kg. Type of assay: functional.
Assay [6] relates to Progesterone receptor (Mesocricetus auratus). Briefly: Percent inhibition of [3H]- progesterone binding to Syrian golden hamster uterine cytosol progesterone receptor, at 10e-9 M compound concentration. The following applies: at 0.001 µM.
The target of assay [7] is T1, Progesterone receptor (Oryctolagus cuniculus). The assay can be described thus: Percent inhibition of [3H]- progesterone binding to rabbit uterine progesterone receptor, at 10e-6 M compound concentration. The following applies: at 1 µM.
Assay [8] relates to Progesterone receptor (Mesocricetus auratus). Briefly: Percent inhibition of [3H]- progesterone binding to Syrian golden hamster uterine cytosol progesterone receptor, at 10e-6 M compound concentration. The following applies: at 1 µM.
For assay [9] the test system is unchanged. The assay can be described thus: Percent inhibition of [3H]- progesterone binding to Syrian golden hamster uterine cytosol progesterone receptor, at 10e-7 M compound concentration. The following applies: at 0.1 µM.
In assay [10] the target is T1, Progesterone receptor (Oryctolagus cuniculus). Briefly: Percent inhibition of [3H]- progesterone binding to rabbit uterine progesterone receptor at 10e-7 M.
Assay [11] relates to Progesterone receptor (Mesocricetus auratus). The assay can be described thus: Percent inhibition of [3H]- progesterone binding to Syrian golden hamster uterine cytosol progesterone receptor, at 10e-5 M compound concentration. The following applies: at 10 µM.
The target in assay [12] is T1, Progesterone receptor (Oryctolagus cuniculus). The assay can be described thus: Percent inhibition of [3H]- progesterone binding to rabbit uterine progesterone receptor, at 10e-7 M compound concentration. The following applies: at 0.1 µM.
In assay [13] the test system is Cricetinae gen. sp. Briefly: Activity against pregnancy-interceptive activity in Syrian golden hamsters, when administered, at a dose of 8.40 mmol/kg. Type of assay: functional, Cricetulus griseus.
Assay [14] concerns Cricetinae gen. sp. The assay can be described thus: Activity against pregnancy-interceptive activity in Syrian golden hamsters, when administered, at a dose of 19.43 mmol/kg. Type of assay: functional.
Assay [15] deals with Cricetinae gen. sp. Briefly: Activity against pregnancy-interceptive activity in Syrian golden hamsters, when administered, at a dose of 15.11 mmol/kg. Type of assay: functional.
Assay [16] deals with Cricetinae gen. sp. Briefly: Activity against pregnancy-interceptive activity in Syrian golden hamsters, when administered, at a dose of 7.83 mmol/kg. Type of assay: functional.
The subject of assay [17] is Cricetinae gen. sp. The assay can be described thus: Activity against pregnancy-interceptive activity in Syrian golden hamsters, when administered, at a dose of 9.54 mmol/kg. Type of assay: functional.
In assay [18] the test system is Cricetinae gen. sp. The assay can be described thus: Activity against pregnancy-interceptive activity in Syrian golden hamsters, when administered, at a dose of 13.85 mmol/kg. Type of assay: functional.
For assay [19], the system named is Cricetinae gen. sp. Briefly: Activity against pregnancy-interceptive activity in Syrian golden hamsters, when administered, at a dose of 26.88 mmol/kg. Type of assay: functional.
For assay [20], the system named is Cricetinae gen. sp. The assay can be described thus: Activity against pregnancy-interceptive activity in Syrian golden hamsters, when administered, at a dose of 7.97 mmol/kg. Type of assay: functional, Cricetulus griseus.
Assay [21] has as its system Cricetinae gen. sp. Briefly: Activity against pregnancy-interceptive activity in Syrian golden hamsters, when administered, at a dose of 9.31 mmol/kg. Type of assay: functional.

In the case of `COC(=O)C1=C(C)N=C(C)/C(=C(\O)OC)C1c1ccc(C(=O)OC)cc1` (stereo not given), the inhibition was determined as 0% in [1]; 25% in assay [2]; 0% in assay [3]; 10% in [4]; 10% in [6]; 15% in assay [7]. The inhibition was found to be 32% in assay [8], 27% in assay [9], 20% in assay [10] and 40% in [11]. This compound also registered an Activity in the assay on Cricetinae gen. sp. [5] of 0.72.
In the case of `COC(=O)C1=C(C)N=C(C)/C(=C(/O)OC)C1c1ccc2nc(-c3ccc4c(c3)OCO4)n(Cc3ccc4c(c3)OCO4)c2c1` (stereo not given), the inhibition in assay [1] came out at 0%; in assay [2], 18%; in assay [3], 0%; in assay [4], 5%; in assay [6], 0%; in [7], 12%. For the same compound, the inhibition in assay [8] is 15%; in assay [9] it was 8%; in [12] it was 5%; in assay [11], 16%. The same compound came in with an Activity with Cricetinae gen. sp. [13] of 4.4.
`COC(=O)C1=C(C)N=C(C)/C(=C(/O)OC)C1c1cc2ccccc2nc1Cl` (stereo not given): the inhibition was determined as 11% in assay [1]; 17% in [2]; 8% in [3]; 10% in assay [4]; 6% in [6]; 16% in assay [7]. Further, the inhibition in [8] was determined as 14%; in assay [9], 11%; in assay [12] it was 10%; in assay [11], 14%. The compound further gave an Activity with Cricetinae gen. sp. [14] of 3.
Consider `COC(=O)C1=C(C)N=C(C)/C(=C(/O)OC)C1c1ccc(N)c(N)c1` (stereo not given), for which the inhibition in assay [1] was found to be 10%; in assay [2] it was 21%; in assay [3], 13%; in assay [4] it was 0%; in assay [6], 0%; in assay [7], 15%. Also, the inhibition in [8] came out at 14%; in assay [9], 9%; in assay [12], 16%; in assay [11], 18%. For the same compound, in the assay with Cricetinae gen. sp. [15], the Activity is 2.3.
As to `COC(=O)C1=C(C)N=C(C)/C(=C(\O)OC)C1c1cc(C(=O)c2ccc(C)cc2)c(OC)cc1OC` (stereo not given), the inhibition in assay [1] worked out at 11%; in assay [2], 23%; in assay [3], 10%; in assay [4] it was 12%; in assay [6], 8%; in assay [7], 18%. Further, the inhibition in assay [8] came to 15%; in assay [9], 15%; in [10], 15%; in assay [11], 18%. The compound further gave an Activity in the assay with Cricetinae gen. sp. [16] of 6.
For `COC(=O)C1=C(C)N=C(C)/C(=C(/O)OC)C1c1ccc(C2C(C(=O)OC)=C(C)N=C(C)/C2=C(/O)OC)cc1` (stereo not given), the inhibition in [1] was found to be 10%; in assay [2], 36%; in [3], 4%; in assay [4] it was 13%; in [6], 9%; in assay [7], 26%. The inhibition in assay [8] came to 31%; in [9], 15%; in [12] it was 16%; in assay [11], 34%. Moreover, the Activity in the assay with Cricetinae gen. sp. [17] came out at 6.2.
With `COC(=O)C1=C(C)N=C(C)/C(=C(\O)OC)C1c1ccc(N)c([N+](=O)[O-])c1` (stereo not given), the inhibition in assay [1] was 0%; in assay [2] it was 5%; in [3], 0%; in [4], 0%; in assay [6] it was 0%; in assay [7], 1%. Further, the inhibition worked out at 5% in assay [8], 5% in assay [9], 0% in assay [12] and 10% in assay [11]. Also, in the assay on Cricetinae gen. sp. [18], the Activity was 7.
Regarding `COC(=O)Nc1nc2cc(C3C(C(=O)OC)=C(C)N=C(C)/C3=C(/O)OC)ccc2n1Cc1ccccc1` (stereo not given), the Activity with Cricetinae gen. sp. [19] was determined as 3.58 mean.
As to `COC(=O)C1=C(C)N=C(C)/C(=C(/O)OC)C1c1ccc2nc(-c3ccc(OC)c(OC)c3)n(Cc3ccc(OC)c(OC)c3)c2c1` (stereo not given), the inhibition came to 0% in assay [1]; 8% in [2]; 0% in assay [3]; 5% in assay [4]; 2% in assay [6]; 10% in [7]. Besides, the inhibition in assay [8] worked out at 10%; in assay [9], 5%; in assay [12], 8%; in [11], 16%. The compound also displayed an Activity in the assay with Cricetinae gen. sp. [20] of 4.
On to `COC(=O)C1=C(C)N=C(C)/C(=C(\O)OC)C1c1cc2cc(-c3c(C)oc(C)c3C(=O)OC)ccc2nc1Cl` (stereo not given), for which the inhibition in assay [1] was determined as 0%; in [2] it was 8%; in assay [3] it was 0%; in assay [4] it was 10%; in assay [6] it was 5%; in assay [7] it was 10%. Moreover, the inhibition came to 20% in assay [8], 9% in assay [9], 5% in [12] and 17% in assay [11]. The compound also displayed an Activity in the assay on Cricetinae gen. sp. [21] of 1.8.
